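Step 1: Grow cells in 96-well plates. Step 2: Expose to compound for 48 hours at 5 concentrations. Step 3: Interpolate endpoints linearly; if unreached, use highest concentration. TGI: total growth inhibition.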 Some results are limits rather than exact numbers.

One experiment has as its system HOP-92 NSCLC. Nature of the experiment: NCI anticancer screen, dose series, 48 h.
Take `COC(=O)N/N=C(\Cc1ccccc1)CN(C)C`: the TGI was above 100 µM.
The same measure, in the same setting: then `Nc1ncnn2c(C3OC(CO)C(O)C3O)ccc12` (stereo not given), with 0.431 µM; and `COc1ccc2c3c1O[C@]1(C)C34CCN(C)C(C2)C42C=C[C@@]1(OC)c1c(O)ccc(O)c12`, with above 100 µM; and `C[N+](C)(C)CC(=O)N/N=C/c1oc(-c2c(O)ccc3ccccc23)c(-c2c(O)ccc3ccccc23)c1[N+](=O)[O-]`, with 50.9 µM.
Same read-out and setting: then `COC(=O)[C@@H]1CN(C(C)=O)C(=O)N1`, with above 100 µM.
`C/C(CC(=O)Nc1ccc([N+](=O)[O-])cc1)=N\NC(N)=O` displayed a TGI above 100 µM.
`CCOC(=O)c1cccn1S(=O)(=O)c1cc(Cl)ccc1NC(=O)CC` came in with a TGI above 100 µM.
Same read-out and setting: the value for `CCCCOC(=O)C1C2CCC(O2)C1C(=O)OCCCC` (stereo not given) was above 100 µM; that for `CSc1nc(C#N)c(/N=C\N(C)C)n1C` was above 100 µM.

The next experiment deals with K-562 leukemia. Nature of the experiment: NCI anticancer screen, dose series, 48 h.
Regarding `O=C1/C(=C/c2cccc(Br)c2)CCc2ccccc21`, the TGI worked out at 29.9 µM.
Same read-out and setting: then `C[C@]12CCC(=O)C=C1CC[C@@H]1[C@@H]2CC[C@]2(C)C(=O)NC(=O)C[C@@H]12`, with above 100 µM; and `COc1cc2c(oc(=O)c3c4oc([Si](C)(C)C)cc4cc(OC)c23)c2cccc(OCc3ccccc3)c12`, with above 100 µM.
Still for that read-out and setting: the value for `CC(=O)OCC1=C(CCC#N)N2C(=O)C(NC(=O)Cc3cccs3)C2S(=O)C1` (stereo not given) was above 100 µM; that for `O=c1c2c(oc3ccccc13)-c1ccccc1OC2` was above 100 µM; that for `CCSc1[nH]c(NC(=S)NC(=O)c2ccccc2Cl)c(C(N)=O)c1C(N)=O` was above 10 µM.
Take `COC(=O)N/N=C(\Cc1ccccc1)CN(C)C`: the TGI is above 100 µM.
Still for that read-out and setting: then `Nc1ncnn2c(C3OC(CO)C(O)C3O)ccc12` (stereo not given), with 0.569 µM; and `COc1ccc2c3c1O[C@]1(C)C34CCN(C)C(C2)C42C=C[C@@]1(OC)c1c(O)ccc(O)c12`, with above 100 µM; and `C[N+](C)(C)CC(=O)N/N=C/c1oc(-c2c(O)ccc3ccccc23)c(-c2c(O)ccc3ccccc23)c1[N+](=O)[O-]`, with above 100 µM.
On to `COC(=O)[C@@H]1CN(C(C)=O)C(=O)N1`, for which the TGI is above 100 µM.
Same read-out and setting: then `COC(=O)c1ccc(C)cc1CC1Cc2cc(C)ccc2C1=O` (stereo not given), with above 100 µM; and `C/C(CC(=O)Nc1ccc([N+](=O)[O-])cc1)=N\NC(N)=O`, with above 100 µM.
In turn, `CCOC(=O)c1cccn1S(=O)(=O)c1cc(Cl)ccc1NC(=O)CC` gave a TGI above 100 µM.
Molecule `CCCCOC(=O)C1C2CCC(O2)C1C(=O)OCCCC` (stereo not given) gave a TGI above 100 µM.
Same read-out and setting: the value for `CSc1nc(C#N)c(/N=C\N(C)C)n1C` was above 100 µM.

A further experiment concerns MCF7 breast. Nature of the experiment: NCI anticancer screen, dose series, 48 h.
With `O=C1/C(=C/c2cccc(Br)c2)CCc2ccccc21`, the TGI was found to be 14.9 µM.
In the case of `O=c1c2c(oc3ccccc13)-c1ccccc1OC2`, the TGI is above 100 µM.
On the same count and under the same terms, the value for `CCSc1[nH]c(NC(=S)NC(=O)c2ccccc2Cl)c(C(N)=O)c1C(N)=O` was above 10 µM.
Same read-out and setting: then `COC(=O)c1ccc(C)cc1CC1Cc2cc(C)ccc2C1=O` (stereo not given), with above 100 µM; and `CCOC(=O)c1cccn1S(=O)(=O)c1cc(Cl)ccc1NC(=O)CC`, with above 100 µM.

The test system of the next experiment is NCI-H460 lung. Briefly: NCI anticancer screen, dose series, 48 h.
`O=C1/C(=C/c2cccc(Br)c2)CCc2ccccc21` had a TGI of 28.5 µM.
In the case of `C[C@]12CCC(=O)C=C1CC[C@@H]1[C@@H]2CC[C@]2(C)C(=O)NC(=O)C[C@@H]12`, the TGI was above 100 µM.
Same read-out and setting: then `COc1cc2c(oc(=O)c3c4oc([Si](C)(C)C)cc4cc(OC)c23)c2cccc(OCc3ccccc3)c12`, with above 100 µM; and `CC(=O)OCC1=C(CCC#N)N2C(=O)C(NC(=O)Cc3cccs3)C2S(=O)C1` (stereo not given), with above 100 µM.
Still for that read-out and setting: then `O=C1CCCCC/C1=C\c1cccc(Cl)c1`, with 87.7 µM.
Still for that read-out and setting: then `COC(=O)N/N=C(\Cc1ccccc1)CN(C)C`, with above 100 µM; and `Nc1ncnn2c(C3OC(CO)C(O)C3O)ccc12` (stereo not given), with 0.918 µM; and `COc1ccc2c3c1O[C@]1(C)C34CCN(C)C(C2)C42C=C[C@@]1(OC)c1c(O)ccc(O)c12`, with above 100 µM.
For `C[N+](C)(C)CC(=O)N/N=C/c1oc(-c2c(O)ccc3ccccc23)c(-c2c(O)ccc3ccccc23)c1[N+](=O)[O-]`, the TGI is 49.3 µM.
Same read-out and setting: then `COC(=O)[C@@H]1CN(C(C)=O)C(=O)N1`, with above 100 µM; and `COC(=O)c1ccc(C)cc1CC1Cc2cc(C)ccc2C1=O` (stereo not given), with above 100 µM; and `C/C(CC(=O)Nc1ccc([N+](=O)[O-])cc1)=N\NC(N)=O`, with above 100 µM.
The same measure, in the same setting: then `CCOC(=O)c1cccn1S(=O)(=O)c1cc(Cl)ccc1NC(=O)CC`, with above 100 µM; and `CCCCOC(=O)C1C2CCC(O2)C1C(=O)OCCCC` (stereo not given), with above 47.1 µM.
Turning to `CSc1nc(C#N)c(/N=C\N(C)C)n1C`, the TGI is above 100 µM.

The next experiment relates to NCI-H522 lung. Briefly: NCI anticancer screen, dose series, 48 h.
`O=C1/C(=C/c2cccc(Br)c2)CCc2ccccc21` registered a TGI of 24.3 µM.
The same measure, in the same setting: the value for `C[C@]12CCC(=O)C=C1CC[C@@H]1[C@@H]2CC[C@]2(C)C(=O)NC(=O)C[C@@H]12` was above 100 µM; that for `COc1cc2c(oc(=O)c3c4oc([Si](C)(C)C)cc4cc(OC)c23)c2cccc(OCc3ccccc3)c12` was above 100 µM.
Same read-out and setting: the value for `CC(=O)OCC1=C(CCC#N)N2C(=O)C(NC(=O)Cc3cccs3)C2S(=O)C1` (stereo not given) was above 100 µM; that for `O=c1c2c(oc3ccccc13)-c1ccccc1OC2` was above 100 µM.
Consider `O=C1CCCCC/C1=C\c1cccc(Cl)c1`, for which the TGI was above 100 µM.
The same measure, in the same setting: then `COC(=O)N/N=C(\Cc1ccccc1)CN(C)C`, with above 100 µM; and `Nc1ncnn2c(C3OC(CO)C(O)C3O)ccc12` (stereo not given), with 1.97 µM; and `COc1ccc2c3c1O[C@]1(C)C34CCN(C)C(C2)C42C=C[C@@]1(OC)c1c(O)ccc(O)c12`, with above 100 µM.
With `C[N+](C)(C)CC(=O)N/N=C/c1oc(-c2c(O)ccc3ccccc23)c(-c2c(O)ccc3ccccc23)c1[N+](=O)[O-]`, the TGI amounted to 31.1 µM.
For the molecule `COC(=O)[C@@H]1CN(C(C)=O)C(=O)N1`, the TGI was above 100 µM.
Regarding `COC(=O)c1ccc(C)cc1CC1Cc2cc(C)ccc2C1=O` (stereo not given), the TGI was above 100 µM.
Still for that read-out and setting: the value for `C/C(CC(=O)Nc1ccc([N+](=O)[O-])cc1)=N\NC(N)=O` was above 100 µM; that for `CCOC(=O)c1cccn1S(=O)(=O)c1cc(Cl)ccc1NC(=O)CC` was 63.1 µM.
The same measure, in the same setting: the value for `CCCCOC(=O)C1C2CCC(O2)C1C(=O)OCCCC` (stereo not given) was above 100 µM; that for `CSc1nc(C#N)c(/N=C\N(C)C)n1C` was above 100 µM.

A further experiment deals with NCI/ADR-RES ovarian. Nature of the experiment: NCI anticancer screen, dose series, 48 h.
In the case of `O=C1/C(=C/c2cccc(Br)c2)CCc2ccccc21`, the TGI came to 33.2 µM.
Molecule `O=c1c2c(oc3ccccc13)-c1ccccc1OC2` came in with a TGI above 100 µM.
As to `Nc1ncnn2c(C3OC(CO)C(O)C3O)ccc12` (stereo not given), the TGI was determined as 2.27 µM.
On the same count and under the same terms, then `COC(=O)[C@@H]1CN(C(C)=O)C(=O)N1`, with above 100 µM; and `COC(=O)c1ccc(C)cc1CC1Cc2cc(C)ccc2C1=O` (stereo not given), with above 100 µM; and `CSc1nc(C#N)c(/N=C\N(C)C)n1C`, with above 100 µM.

Another experiment deals with OVCAR-8 ovarian. Briefly: NCI anticancer screen, dose series, 48 h.
`O=C1/C(=C/c2cccc(Br)c2)CCc2ccccc21` displayed a TGI of 36.1 µM.
The molecule `C[C@]12CCC(=O)C=C1CC[C@@H]1[C@@H]2CC[C@]2(C)C(=O)NC(=O)C[C@@H]12` returned a TGI above 100 µM.
`COc1cc2c(oc(=O)c3c4oc([Si](C)(C)C)cc4cc(OC)c23)c2cccc(OCc3ccccc3)c12`: the TGI is above 71.5 µM.

The values are drawn from PubChem BioAssay (NCI).
